Measurements published in patent US7214709B2, “Arginine/ascorbic acid mixed powder as an oral supplement” (priority 2000, dated 2007).

Test system: O=NOO- derived from the reaction of NO· with O2·-
Assay: Formation of peroxynitrite from reaction of NO radical with superoxide
Details: in vitro and in vivo condition
From the text: Ascorbate is a typical scavenger of O2·^− and thus could inhibit the production of O═NOO^−. […] Based on this discovery, an administration of a great amount of arginine combined with ascorbic acid in an amount 1/5 times and more, for example from 1/5 to 20 times, especially from 1.5 to 20 times the amount of the arginine can be expected to prevent peroxidative injuries of cells caused by the ion, O═NOO^−. Therefore, the present invention also includes the following embodiments.

Q: Which “Formation of O=NOO- (peroxynitrite)” value does the source give for O=C1O[C@H]([C@@H](O)CO)C(O)=C1O [ascorbic acid, L-ascorbic acid] here?
A: Its value is “retards formation”.
